In patent EP0728738A1, “Tetralinyl- and indanyl-ethylamides having melatonergic activity” (BRISTOL-MYERS SQUIBB COMPANY, priority 1995, dated 1996):

target: T1, Human Melatonin Receptor ML1A (Homo sapiens, UniProt P48039); assay: Melatonergic binding at the human melatonin receptor ML1A (2-[125I]-iodomelatonin displacement, membranes of transfected COS-1 cells); conditions: human ML1A in COS-1 cell membranes, 2-[125I]-iodomelatonin 100 pM, 37°C for 1 hour; read-out: Binding Affinity IC50
T1 construct: expressed in transfected cells; host or cells: COS-1 cells, pcDNAI vector, DEAE-dextran transfection
Experimental: Example 47: Measurement of Melatonergic Binding at the Human Melatonin Receptor ML1A
• 1. Reagents: • (a) 50mM Tris buffer containing 12.5 mM MgCl2, and 2mM EDTA, pH 7.4 at 37 °C with concentrated HCl. • (b) Wash buffer: 20mM Tris base containing 2mM MgCl2. pH 7.4 at room temperature. • (c) 10^-4M 6-Chloromelatonin (10-^5M final concentration). • (d) 2-[^125I]-iodomelatonin, 100 pM final concentration Source: NEN • 2. Membrane preparation: The cDNA (human ML1A) in pcDNAI was introduced into COS-1 cells by the DEAE-dextran method. Three days after transfection, the media was removed, the plates washed with phosphate buffered saline, the cells removed using Hank's balanced salt solution and pelleted. For preparing membrane homogenates, pellets are thawed on ice, and resuspended in TME buffer, 50 mM Tris base, 12.5 mM MgCl2, 1 mM EDTA (pH7.4 at 37°C with concentrated HCL), supplemented with 10 µg/ml aprotinin and leupeptin, and 100 µM phenylmethlysulfonylfluoride. The cells were then homogenized using a dounce homogenizer, and centrifuged. The resulting pellet was resuspended with a dounce homogenizer in TME and frozen. On the day of assay, the small aliquot was thawed on ice and resuspended in TME buffer. • 3. Incubation: 37 °C for 1 hour. Reaction is terminated by filtration. • 4. […] Reference: Reppert, S. M., Weaver, D. R., and Ebisawa, R. (1994), Neuron, 13, 1177-1185.

T1 sequence (P48039 whole entry): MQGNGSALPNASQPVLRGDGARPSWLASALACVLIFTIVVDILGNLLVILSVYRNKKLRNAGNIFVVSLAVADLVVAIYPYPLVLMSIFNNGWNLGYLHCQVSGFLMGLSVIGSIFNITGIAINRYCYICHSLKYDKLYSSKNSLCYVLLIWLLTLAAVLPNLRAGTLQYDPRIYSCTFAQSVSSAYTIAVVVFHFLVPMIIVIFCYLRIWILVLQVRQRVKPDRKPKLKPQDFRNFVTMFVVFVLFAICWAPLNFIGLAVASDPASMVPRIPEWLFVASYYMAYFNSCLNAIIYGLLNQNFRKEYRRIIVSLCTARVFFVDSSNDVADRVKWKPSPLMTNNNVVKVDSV

Q: How did the IC50 turn out when CCCC(=O)NCCC1CCc2ccc(OC(F)F)cc21 (centres unmarked) [Example 45, N-[2-(6-Difluoromethoxy-2,3-dihydro-1H-inden-1-yl)ethyl]butanamide] was run?
A: < 100 nM

Q: With CCCCCCCCCCCCOc1ccc2c(c1)C(CCNC(=O)CCC)CC2 (centres unmarked) [Example 43, N-[2-(2,3-Dihydro-6-dodecyloxy-1H-inden-1-yl)ethyl]butanamide] as the compound, how does the IC50 read?
A: < 100 nM

Q: CCCC(=O)NCCC1CCc2ccc(OC)cc21 (single isomer, unassigned; (-)) [Example 36] was tested. Which IC50 did it give?
A: < 100 nM

Q: COCC(=O)NCCC1CCCc2ccc(OC)cc21 (single isomer, unassigned; (+)) [Example 39, (+)-N-[2-(1,2,3,4-tetrahydro-7-methoxynaphthalen-1-yl)ethyl] methoxyacetamide] was tested. Which IC50 did it give?
A: ≥ 500 nM

Q: For COCC(=O)NCCC1CCCc2ccc(OC)cc21 (single isomer, unassigned; (-)) [Example 38, (-)-N-[2-(1,2,3,4-tetrahydro-7-methoxynaphthalen-1-yl)ethyl] methoxyacetamide], which IC50 is on record?
A: < 100 nM

Q: Which IC50 does the source give for CCCC(=O)NCCC1CCc2ccc(OC)cc21 (single isomer, unassigned; (+)) [Example 37] here?
A: 100 to 500 nM

target: ML1 Receptor; assay: Melatonergic binding at the ML1 receptor in rabbit tissue (2-[125I]-iodomelatonin displacement, parietal cortex homogenate); conditions: 2-[125I]-iodomelatonin 44pM, 37°C for 1 hour, read-out: Binding Affinity IC50
Experimental: Example 46: Measurement of Melatonergic Binding at the ML1 Receptor in Rabbit Tissue
• 1. Reagents • (a) 50mM Tris buffer containing 12.5 mM MgCl2, and 2mM EDTA (pH 7.4 at 37 °C). • (b) Wash buffer: 20mM Tris base containing 2mM MgCl2 (pH 7.4 at room temperature). • (c) 6-Chloromelatonin (10-^5M final concentration). • (d) 2-[^125I]-iodomelatoin, 44pM final concentration Source: NEN • 2. Tissue preparation. Male New Zealand white rabbits (Hazelton Research) are decapitated, the brains are rapidly removed and chilled. The parietal cortex is crudely dissected and frozen on dry ice with tissue stored at - 80 °C until assayed. Tissue is weighed and thawed in 20 mls ice cold Tris buffer (a) and homogenized by treatment with a polytron for 10 seconds at setting 17. Ice cold Tris (a) is added to a volume of 40 mls. The homogenate is centrifuged. The resulting supernatant is decanted and discarded. The pellet is rehomogenized in an additional 20 mls of Tris, diluted and centrifuged. The supernatant is decanted and discarded. The resulting pellet is homogenized in 20 volumes of Tris per gram of original tissue (a 1:20 homogenate), chilled, and held on ice until assayed. • 3. Incubation: 37 °C for 1 hour. Reaction is terminated by filtration. • 4. […] References: Stankov, B., Cozzi, B., Lucini, V., Fumagalli, P., Scaglione, F. and F. Fraschini. Characterization and mapping of melatonin receptors in the brain of three mammalian species: Rabbit, horse, and sheep. Neuroendocrinology 53: 214-221, 1991.

Q: For COc1ccc2c(c1)C(CCNC(C)=O)CC2(C)C (centres unmarked) [Example 32, N-[2-(2,3-Dihydro-6-methoxy-3,3-dimethyl-1H-inden-1-yl)ethyl]acetamide], which IC50 is on record?
A: 100 to 500 nM

Q: For COc1ccc2c(c1)C(CCNC(=O)C1CC1)CC2 (centres unmarked) [Example 24, N-[2-(2,3-Dihydro-6-methoxy-1H-inden-1-yl)-ethyl]cyclopropane carboxamide], which IC50 is on record?
A: < 100 nM

Q: CCCC(=O)NCCC1CCc2ccc(F)cc21 (centres unmarked) [Example 31, N-[2-(6-Fluoro-2,3-dihydro-1H-inden-1-yl)ethyl]butanamide] was tested. Which IC50 did it give?
A: < 100 nM

Q: How did the IC50 turn out when COc1ccc2c(c1)C(CCNC(C)=O)CCC2 (centres unmarked) [Example 4, N-[2-(7-Methoxy-1,2,3,4-tetrahydro-1-naphthalenyl)ethyl]acetamide] was run?
A: < 100 nM

Q: With CCCC(=O)NCCC1CCc2ccc(C(=O)OC)cc21 (centres unmarked) [Example 42, N-[2-(2,3-Dihydro-6-methoxycarbonyl-1H-inden-1-yl)ethyl]butanamide] as the compound, how does the IC50 read?
A: < 100 nM

Q: CCCC(=O)NCCC1CCc2ccc(OC)cc21 (single isomer, unassigned; (-)) [Example 36] was tested. Which IC50 did it give?
A: < 100 nM

Q: With COc1ccc2c(c1)C(CCNC(C)=O)CC2 (centres unmarked) [Example 25, N-[2-(2,3-Dihydro-6-methoxy-1H-inden-1-yl)-ethyl]acetamide] as the compound, how does the IC50 read?
A: < 100 nM

Q: How did the IC50 turn out when CCCC(=O)NCCC1CC(C)(C)c2ccc(OC)cc21 (centres unmarked) [Example 33, N-[2-(2,3-Dihydro-6-methoxy-3,3-dimethyl-1H-inden-1-yl)ethyl]butanamide] was run?
A: 100 to 500 nM

Q: For COc1ccc2c(c1)C(CCNC(=O)C1CC1)CCC2 (centres unmarked) [Example 3, N-[2-(7-Methoxy-1,2,3,4-tetrahydro-1-naphthalenyl)ethyl]cyclopropane carboxamide], which IC50 is on record?
A: < 100 nM

Q: With COCC(=O)NCCC1CCCc2ccc(OC)cc21 (single isomer, unassigned; (+)) [Example 39, (+)-N-[2-(1,2,3,4-tetrahydro-7-methoxynaphthalen-1-yl)ethyl] methoxyacetamide] as the compound, how does the IC50 read?
A: < 100 nM

Q: With COCC(=O)NCCC1CCCc2ccc(OC)cc21 (centres unmarked) [Example 16, N-[2-(7-Methoxy-1,2,3,4-tetrahydro-1-naphthalenyl)ethyl]-2-methoxyacetamide] as the compound, how does the IC50 read?
A: < 100 nM

Q: How did the IC50 turn out when CCCC(=O)NCCC1CCCc2ccc(OC)cc21 (centres unmarked) [Example 1, N-[2-(7-Methoxy-1,2,3,4-tetrahydro-1-naphthalenyl)ethyl]butanamide] was run?
A: < 100 nM

Q: For CCCC(=O)NCCC1CCc2ccc(OC)cc21 (centres unmarked) [Example 22, N-[2-(2,3-Dihydro-6-methoxy-1H-inden-1-yl)-ethyl]butanamide], which IC50 is on record?
A: < 100 nM

Q: COCC(=O)NCCC1CCCc2ccc(OC)cc21 (single isomer, unassigned; (-)) [Example 38, (-)-N-[2-(1,2,3,4-tetrahydro-7-methoxynaphthalen-1-yl)ethyl] methoxyacetamide] was tested. Which IC50 did it give?
A: < 100 nM
